Experimental data published in US20050277602A1, “Methods employing agonists of P38 map kinase for the treatment of asthma” (priority 2004, published 2005).
Values joined by “and” are separate entries in the source; they are usually repeats but may differ in a detail not shown here. Equal values may be shown once. “Also recorded” adds a separate entry of the source. Read-outs that look alike come from different tables or passages of the source.

B1: Der p1: affinity purified house dust mite allergen with intrinsic cysteine protease activity, activated with cysteine (protein, UniProt P08176 99-320, looked up)
Peptidase 1: TNACSINGNAPAEIDLRQMRTVTPIRMQGGCGSCWAFSGVAATESAYLAYRNQSLDLAEQELVDCASQHGCHGDTIPRGIEYIQHNGVVQESYYRYVAREQSCRRPNAQRFGISNYCQIYPPNVNKIREALAQTHSAIAVIIGIKDLDAFRHYDGRTIIQRDNGYQPNYHAVNIVGYSNAQGVDYWIVRNSWDTNWGDNGYGYFAANIDLMMIEEYPYVVIL

Key:
rabbit ASM tissues [1] = assay: Constrictor responses to acetylcholine in isolated rabbit ASM tissues (organ bath, isometric tension); format: cell-based; settings: for effect on constrictor responses to ACh in tissues not exposed to Der p1: control (vehicle-exposed) ASM; for maximal constrictor response (Tmax) to ACh: mean±SE
Description: (§1) Following general anesthesia with xylazine (10 mg/kg) and ketamine (50 mg/kg), rabbits were sacrificed with an overdose of pentobarbital (125 mg/kg). As described previously (Grunstein et al. (2001) Am J Physiol Lung Cell Mol Physiol 280:L229-L238), the tracheae were removed via open thoracotomy, the loose connective tissue and epithelium were carefully scraped and removed, and the tracheae were divided into ring segments. Each alternate ring was incubated for 24 hours at room temperature in the presence of either vehicle (saline) alone (control), vehicle containing cysteine (5 mM), or varying concentrations of affinity purified Der p1 allergen (0.1, 0.5, 1.0, 5.0 μg/ml) both in the absence and presence of cysteine, as addition of the latter is required to restore the cysteine protease activity of the purified Der p1. In parallel experiments, 30 min prior to incubation in control or Der p1-containing medium, ASM segments were treated with either the specific cysteine protease inhibitor, E-64 (trans-epoxysuccinyl-L-leucyl-amido (4-guanidino)-butane; 1 μM), the serine protease inhibitor, leupeptin (1 μM), the MEK1/2-specific inhibitors, U0126 (5 μM) or PD98059 (10 μM), or the specific p38 MAP kinase inhibitors, SB202190 (10 μM) or SB203580 (10 μM).
(§2) Following incubation, the ASM segments were placed in organ baths containing modified Krebs-Ringer solution aerated with 5% CO2 in oxygen (pH: 7.35-7.40), and the tissues were attached to force transducers from which isometric tension was continuously monitored on a multichannel recorder, as previously described (Hirst et al. (2002) Am J Respir Crit Care Med 165:1161-71). Cholinergic contractility was then assessed in the ASM segments by cumulative administration of acetylcholine (ACh; 10^−10 to 10^−4 M). Thereafter, the tissues were repeatedly rinsed with fresh buffer, and subsequent relaxation responses to isoproterenol (10^−10-10^−4 M) were generated after the tissues were half-maximally contracted with ACh. The constrictor dose-response curves to ACh were analyzed in terms of each tissue's maximal isometric contractile force (Tmax) to the agonist, and the relaxation responses to isoproterenol were assessed in terms of % maximal relaxation (Rmax) from the initial level of induced cholinergic contraction, and sensitivity to the relaxing agent was determined as the corresponding pD50 value (i.e., geometric mean ED50 value) associated with 50% of Rmax.

rabbit ASM tissues [2] = assay: Relaxation responses to isoproterenol in isolated rabbit ASM tissues half-maximally contracted with ACh; format: cell-based; settings: for effect on relaxation responses to isoproterenol in tissues not exposed to Der p1: control ASM
Description: as §1, §2

ERK1/2 = assay: Immunoblot analysis of phosphorylated ERK1/2 in rabbit ASM tissues; format: cell-based; settings: for effect on Der p1-induced expression of phosphorylated ERK1/2: Der p1-exposed ASM pretreated/co-treated with E-64, SB202190 or anisomycin (50 ng/ml)
Description: (§3) Protein levels of phosporylated and total ERK1/2 and p38 MAP kinase were assessed by Western blot analysis of whole cell lysates isolated from rabbit ASM tissues following treatment with either vehicle alone or cysteine-activated Der p1 (1 μg/ml), both in the absence and presence of E-64, SB202190, or anisomycin. The tissues were homogenized and proteins extracted in a buffer containing 50 mM Tris-HC 1,150 mM NaCl, 1 mM EDTA (pH 7.4) with 1 mM phenylmethylsulfonyl fluoride, 5 μg/mL aprotinin, and 5 μg/mL leupeptin. Following removal of insoluble debris by centrifugation, gel-loading buffer was added to the supernatants, and extracts were then loaded (using 30 μg total protein/sample) on a 10% SDS-PAGE gel for immunoblotting after transferring to a nitrocellulose membrane. The membranes were blocked with 5% nonfat dry milk and then incubated overnight with monoclonal mouse anti-human phosphotyrosine-threonine (Thr180/Tyr182)-p38 MAP kinase and p38 MAP kinase, and anti-human phosphotyrosine-threonine (Thr202/Tyr204)-p44/42 (ERK1/2) and p44/42 primary antibodies. The kinase levels were detected using enhanced chemiluminescence after a 1-hour incubation with a 1:1,000 dilution of horseradish peroxidase (HRP)-conjugated goat-anti-mouse secondary antibody, followed by exposure to autoradiography film. Protein band intensities were quantified using Alphalmager, and the data normalized relative to those obtained in untreated ASM samples.

p38 MAP kinase = assay: Immunoblot analysis of phosphorylated p38 MAP kinase in rabbit ASM tissues; format: cell-based; settings: for expression of phosphorylated p38 MAP kinase relative to control (unstimulated) ASM: tissues exposed for 30 min, anisomycin 50 ng/ml or Der p1 alone
Description: as §3

HL-60 leukemia cells = settings: cited from earlier work
[3] = system: cultured human ASM (HASM) cells; assay: IgE-induced release of IL-6 from cultured human ASM cells (ELISA); format: cell-based
Description: Human airway smooth muscle cells were purchased from BioWhittaker, Inc., (Walkersville, […].) The cells were cultured in 100 mm dishes in Ham's F 12 nutrient mixture (Invitrogen, Carlsbad Calif.) supplemented with 10% FBS (Hyclone, Logan, Utah) under 5% CO2 environment. After attaining 90% confluence in cell culture, the cells were used for the studies described in Example 2.
Preparations of IgE immune complexes containing human IgE and mouse monoclonal IgG2B (anti-IgE) (Biodesign International, Saco, Me.) at a 15/5 μg ratio were added to cells 24 hr after serum deprivation. The cells were harvested at the indicated time points for immunoblotting and media were collected for ELISA analysis as described below.
IL 6 accumulation in the ASM cell culture media was detected using an ELISA kit for IL 6 purchased from Research Diagnostics Inc. (Flanders, N.J.). Culture media was diluted 1:50 into a sample dilution buffer supplied in the kit. The experiments were carried out according to the manufacturer's protocol.

OVA-sensitized mice = OVA-sensitized mice treated with U0126; cited from earlier work
ASM preparations = assay: Intracellular cAMP accumulation in ASM preparations (EIA); format: cell-based, rabbit; settings: tissues exposed to Der p1; data not shown
Description: Intracellular cAMP levels were assayed in control (untreated) and Der p1-treated ASM preparations under baseline (unstimulated) conditions and at 10 min following administration of isoproterenol (0.1-10 μM). Following stimulation with isoproterenol, the tissues were homogenized and the cAMP levels were measured using the Form a A cyclic AMP “PLUS” EIA kit (Biomol Inc., Plymouth Meeting, Pa.) following manufacturer's protocol.

[4] = Der p1-exposed ASM, E-64 1 μM, leupeptin 1 μM, U0126 5 μM, PD98059 10 μM, SB202190/SB203580 10 μM, anisomycin 50 ng/ml
[5] = Der p1 not pre-activated with cysteine (inactivated), data not shown
[6] = Der p1-exposed tissues, densitometry, 4 experiments

Molecule | effect of pretreatment on Der p1-induced enhanced constrictor responsiveness to ACh (rabbit ASM tissues [1]; [4]) | effect on constrictor responses to ACh in tissues not exposed to Der p1 (rabbit ASM tissues [1]) | effect of pretreatment on Der p1-induced impaired relaxation responsiveness to isoproterenol (rabbit ASM tissues [2]; [4]) | effect on relaxation responses to isoproterenol in tissues not exposed to Der p1 (rabbit ASM tissues [2]) | effect on Der p1-induced expression of phosphorylated ERK1/2 (ERK1/2) | further results
COc1ccc(C[C@H]2NC[C@H](O)[C@H]2OC(C)=O)cc1 [anisomycin] | completely abrogated | no effect | largely prevented | no significant effect | largely abrogated | effect on phosphorylated ERK1/2 expression in unstimulated ASM (ERK1/2; anisomycin 50 ng/ml, 30 min, no Der p1): essentially no effect; expression of phosphorylated p38 MAP kinase relative to control (unstimulated) ASM (p38 MAP kinase): increased expression; stimulated ERK activity (HL-60 leukemia cells; stimulated HL-60 cells): inhibits; basal ERK activity (HL-60 leukemia cells; unstimulated HL-60 cells): no effect
COc1cccc(-c2cc(=O)c3ccccc3o2)c1N [PD98059] | qualitatively comparable opposing effects; also recorded: largely prevented | neither of these inhibitors produced a significant change | qualitatively comparable opposing effects; also recorded: largely prevented | neither of these inhibitors produced a significant change | – | –
N#CC(=C(/N)Sc1ccccc1N)/C(C#N)=C(\N)Sc1ccccc1N [U0126] | – | – | – | – | – | effect of pretreatment on Der p1-induced enhanced constrictor responsiveness to ACh (rabbit ASM tissues [1]): completely abrogated; effect of pretreatment on Der p1-induced impaired relaxation responsiveness to isoproterenol (rabbit ASM tissues [2]): largely ablated; effect on IgE-induced release of IL-6 ([3]; IgE-exposed HASM cells, concomitant pretreatment with U-0126): completely abrogated; airway hyperresponsiveness, elevated intrapulmonary eosinophil counts and cytokine levels (OVA-sensitized mice): significantly inhibit
C[S+]([O-])c1ccc(-c2nc(-c3ccncc3)c(-c3ccc(F)cc3)[nH]2)cc1 (centres unmarked) [SB203580] | qualitatively comparable opposing effects | neither of these inhibitors produced a significant change | qualitatively comparable opposing effects | neither of these inhibitors produced a significant change | – | –
CC(=O)N[C@@H](CC(C)C)C(=O)N[C@@H](CC(C)C)C(=O)N[C@H](C=O)CCCNC(=N)N [leupeptin] | unaffected | – | unaffected | – | – | –
CC(C)C[C@H](NC(=O)[C@H]1O[C@@H]1C(=O)O)C(=O)NCCCCN=C(N)N (relative stereo) [E-64, trans-epoxysuccinyl-L-leucyl-amido (4-guanidino)-butane] | largely abrogated | no effect | prevented | no effect | neither the levels of phosphorylated ERK1/2 nor p38 MAP kinase were appreciably altered | effect on Der p1-induced expression of phosphorylated p38 MAP kinase (p38 MAP kinase): neither the levels of phosphorylated ERK1/2 nor p38 MAP kinase were appreciably altered
Oc1ccc(-c2nc(-c3ccncc3)c(-c3ccc(F)cc3)[nH]2)cc1 [SB202190] | further augmented | – | further significantly impaired | – | distinctly enhanced | maximal constrictor response (Tmax) to ACh (rabbit ASM tissues [1]; Der p1-exposed tissues pretreated with SB202190 (10 μM)): 136.2±6.2 g/g ASM wt.; maximal relaxation (Rmax) to isoproterenol (rabbit ASM tissues [2]; Der p1-exposed tissues pretreated with SB202190 (10 μM), mean): 37.6±7.1%; IgE-induced release of IL-6, augmented ([3]; IgE-exposed HASM cells pretreated with SB-202190): approximately 9 fold
B1 | – | – | – | – | – | maximal constrictor response (Tmax) to ACh (rabbit ASM tissues [1]; ASM exposed 24 h to cysteine-activated Der p1 (1 μg/ml)): 133.7±8.4 g/g ASM wt. and 123.8±6.5 g/g ASM wt. and 119.0±8.2 g/g ASM wt.; effect on constrictor responsiveness (rabbit ASM tissues [1]; [5]): no effect; sensitivity to isoproterenol (pD50) (rabbit ASM tissues [2]; ASM exposed 24 h to Der p1, mean±SE): 5.99±0.04 -log M; maximal relaxation (Rmax) to isoproterenol (rabbit ASM tissues [2]; ASM exposed 24 h to cysteine-activated Der p1, mean±SE): 37.9±4.9% and 48.8±4.7%; effect on relaxant responsiveness (rabbit ASM tissues [2]; [5]): no effect; maximal enhanced expression of phosphorylated ERK1/2 above basal (pretreatment) level (ERK1/2; [6]): 5.8 fold; maximal enhanced expression of phosphorylated p38 MAP kinase above basal (pretreatment) level (p38 MAP kinase; [6]): 3.2 fold; expression of phosphorylated p38 MAP kinase relative to control (unstimulated) ASM (p38 MAP kinase): increased expression; isoproterenol-induced cAMP accumulation relative to control (untreated) ASM (ASM preparations): reduced
